This test has as its system 282377-053-R-J1-PDC complex spheroid viability. Description: Anticancer human tumor 282377-053-R-J1-PDC patient-derived colon adenocarcinoma cell line growth inhibition [POLQ]. Conditions: for viability, T/C: stronger effect = lower value; for IC50: curve of compound. As to the method:
Multicellular complex tumor spheroid response to Polymerase (POL) inhibitors (novobiocin, ART-558, RP6685) in combination with a variety of drugs and investigational agents in selected tumor cell lines
The POL inhibitors (novobiocin, ART-558, and RP6685) were evaluated both individually and in combination with standard of care and investigational anticancer small molecules within a complex spheroid model of solid tumors. . Complex spheroids include a stromal component modeled by human endothelial cells (HUVEC) and fibroblasts modeled by human mesenchymal stem cells (MSCs). The concentration ranges selected for each drug and investigational agent were based upon clinically achievable concentrations if the clinical Cmax of the agent was known.
Compounds. The drugs and investigational agents: novobiocin (NSC847541), ART-558 (NSC835418), RP-6685 (NSC848927), peposertib (NSC802822), ceralasertib (NSC780249), elimusertib (NSC800525), camonsertib (NSC841442), AZD-1390 (NSC803789), olaparib (NSC753686), talazoparib (NSC767125), rucaparib (NSC756644), sotorasib (NSC818433), MRTX-1133 (NSC836407), SN-38 (NSC673596), topotecan (NSC609699), epotoside (NSC141540), doxorubicin (NSC123127), gemcitabine (NSC613327), 5-fluorouracil (NSC19893), paclitaxel (NSC125973), vemurafenib (NSC761431), MSA-2 (NSC828583), SN-011 (NSC837082), adavosertib (NSC754352), prexasertib (NSC758257), carboplatin (NSC241240) and oxaliplatin (NSC266046), were obtained from the National Cancer Institute (NCI) Developmental Therapeutics Program Chemical Repository (21). The FDA-approved anticancer drug set is available from the Developmental Therapeutics Program at https://dtp.cancer.gov/organization/dscb/obtaining/. […] The stock solutions were prepared in dimethyl sulfoxide (DMSO, Sigma-Aldrich, St. Louis, MO, cat. D2650), except for the platinum compounds which were prepared in saline (Quality Biological, Gaithersburg, MD, cat. 114-055-101), at 800-fold the tested concentration and stored at -70 degrees C prior to their use. All drugs and investigational agents were tested over a range starting from a high concentration at or near the clinical Cmax and decreasing in half-log increments. If the clinical Cmax for an agent had not been determined, the highest concentration tested was 10 microM, except for SN-38, which was tested at a high concentration of 1 microM.
Cell Culture. All cells were maintained in an incubator at 37 degrees C and 5% CO2 with 95% humidity. The PDC lines were cultured according to standard operating procedures established by the NCI PDMR (https://pdmr.cancer.gov). Table 3 of the manuscript, lists the cell lines along with the number of the three cell types plated to form the mct-spheroids and media for tumor cell growth. After thawing, all PDC lines, except 997537-175-T-J1-PDC and 415267-285-R-J2-PDC, were cultured in Matrigel-coated flasks prepared with a working solution of 1X Ham's F-12 nutrient mix, without supplementation (Thermo Fisher Scientific, cat. 11765054), 100 U/mL penicillin-streptomycin (Thermo Fisher Scientific, cat. 15140122), and 2.5% Matrigel (Corning Inc., Corning, NY, cat. 354248) for the first three passages. The two PDC lines 997537-175-T-J1-PDC and 415267-285-R-J2-PDC were cultured on uncoated flasks. The 857933-349-R-J2-PDC line was cultured in 6C/Colon 1B media containing advanced DMEM/F-12 (Thermo Fisher Scientific, cat. 12634028), 10 mM HEPES (Thermo Fisher Scientific, cat. 15630080), 1X GlutaMAX supplement (Thermo Fisher Scientific, cat. 35050061), 0.1 mg/mL primocin (InvivoGen, San Diego, CA, cat. ant-pm-2), 10% defined fetal bovine serum, heat inactivated (HyClone Laboratories Inc., Logan, UT, cat. SH30070.03HI), 50% L-WRN conditioned media (ATCC, cat. CRL-3276), 1.25 mM N-Acetyl-L-cysteine (Sigma-Aldrich, cat. A9165), 10 mM nicotinamide (Sigma-Aldrich, cat. N0636), 1X B-27 supplement (Thermo Fisher Scientific, cat. 17504044), 1X N-2 supplement (Thermo Fisher Scientific, cat. […]

Several values for one entry are separate records, joined by “and”; a condition that tells them apart may be missing. Equal entries are not always repeated.
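Further: spheroids exposed to compounds for seven days.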

The term viability, T/C denotes the result in the treated group divided by that in the control group, in per cent. As usually defined, the IC50 is the concentration that inhibits the measured activity by half. For `C=CC(=O)N1CCN(c2nc(=O)n(-c3c(C)ccnc3C(C)C)c3nc(-c4c(O)cccc4F)c(F)cc23)C(C)C1` (stereo not drawn), the IC50 was greater than 10 µM. Further, the viability, T/C (compound 0.0316 µM) was 90.8% and 111% and 101%. For the same compound, the viability, T/C (compound 0.1 µM) is 96% and 93.3% and 101%. Besides, the viability, T/C (compound 0.316 µM) is 82.7% and 111% and 107%. Also, under “compound 1 µM”, the viability, T/C is 82.8% and 111% and 110%. Where the note is “compound 3.16 µM”, the viability, T/C is 94% and 105% and 101%. Also, the viability, T/C (compound 10 µM) is 78.2% and 87% and 86.5%.

In the case of `C=CCn1c(=O)c2cnc(Nc3ccc(N4CCN(C)CC4)cc3)nc2n1-c1cccc(C(C)(C)O)n1`, the IC50 was greater than 1 µM. Also, the viability, T/C (compound 0.00316 µM) is 107% (2×) and 111%. The viability, T/C (compound 0.01 µM) is 119% and 95.2% and 85.9%. Also, the viability, T/C (compound 0.0316 µM) was 98% and 116% and 91.7%. Moreover, the viability, T/C (compound 0.1 µM) was 103% and 95.6% and 93.7%. In addition, the viability, T/C (compound 0.316 µM) is 109% and 85.2% and 82.7%. For the setting “compound 1 µM”, the viability, T/C was 81.5% and 87.5% and 68.1%.

Consider `CC(=O)O[C@H]1C(=O)[C@@]2(C)[C@H]([C@H](OC(=O)c3ccccc3)[C@]3(O)C[C@H](OC(=O)[C@H](O)[C@@H](NC(=O)c4ccccc4)c4ccccc4)C(C)=C1C3(C)C)[C@]1(OC(C)=O)CO[C@@H]1C[C@@H]2O`, for which the viability, T/C is 93.6% and 91% and 48.6% (compound 0.00949 µM); 40.4% and 58.8% and 17.8% (compound 0.03 µM); 40.3% and 41.6% and 17.4% (compound 0.0949 µM); 42% and 47.9% and 19% (compound 0.3 µM); 42.7% and 50.8% and 21.5% (compound 0.949 µM); 47.6% and 61% and 28.4% (compound 3 µM).

`CC(C)n1c(=O)n(C)c2cnc3cc(F)c(-c4ccc(OCCCN5CCCCC5)nc4)cc3c21`: the IC50 was greater than 10 µM. The viability, T/C (compound 0.0316 µM) was 103% and 107% and 118%. Besides, where the note is “compound 0.1 µM”, the viability, T/C was 133% and 106% and 113%. Besides, the viability, T/C (compound 0.316 µM) is 104% and 103% and 109%. Moreover, the viability, T/C (compound 1 µM) was 103% and 118% and 107%. Also, under “compound 3.16 µM”, the viability, T/C was 104% and 114% and 103%. In addition, the viability, T/C (compound 10 µM) was 104% and 108% and 105%.

Turning to `CC1COCCN1c1cc(-c2ccnn2C)c2ccnc(-c3ccn[nH]3)c2n1` (stereo not drawn), the IC50 was 0.406 µM and 0.27 µM and 2.09 µM. For the same compound, where the note is “compound 0.0316 µM”, the viability, T/C is 93.1% and 105% and 77.6%. For the same compound, under “compound 0.1 µM”, the viability, T/C was 67.1% and 76.9% and 73.5%. For the same compound, the viability, T/C (compound 0.316 µM) was 55.3% and 44.6% and 61.7%. Further, the viability, T/C (compound 1 µM) was 37.6% and 31.7% and 57.4%. Also, the viability, T/C (compound 3.16 µM) is 35.6% and 27.5% and 46%. For the same compound, the viability, T/C (compound 10 µM) is 25.1% and 22.8% and 38.4%.

`CC1COCCN1c1cc(C2(S(C)(=N)=O)CC2)nc(-c2ccnc3[nH]ccc23)n1` (stereo not drawn): the IC50 is 7.04 µM and > 10 µM and 7.94 µM. Further, the viability, T/C (compound 0.0316 µM) is 93% and 90.1% and 105%. Under “compound 0.1 µM”, the viability, T/C was 95.7% and 96.4% and 89.9%. The viability, T/C (compound 0.316 µM) was 86.7% and 94.9% and 95.5%. Further, the viability, T/C (compound 1 µM) was 75.4% and 89.4% and 93.3%. For the same compound, under “compound 3.16 µM”, the viability, T/C is 57.4% and 74.8% and 62%. In addition, the viability, T/C (compound 10 µM) was 46.7% and 55.4% and 47%.

Turning to `CCCS(=O)(=O)Nc1ccc(F)c(C(=O)c2c[nH]c3ncc(-c4ccc(Cl)cc4)cc23)c1F`, the IC50 is > 10 µM and 3.36 µM. For the same compound, the viability, T/C (compound 0.0316 µM) was 93.1% and 82.2% and 78.1%. Also, the viability, T/C (compound 0.1 µM) is 85.3% and 76.1% and 69.5%. Where the note is “compound 0.316 µM”, the viability, T/C was 85.1% and 71% and 76.2%. Besides, the viability, T/C (compound 1 µM) was 72% and 64.2% and 46.1%. Besides, the viability, T/C (compound 3.16 µM) is 68.8% and 63.2% and 64.1%. Also, the viability, T/C (compound 10 µM) was 69.5% and 72.5% and 26.7%.

Consider `CC[C@@]1(O)C(=O)OCc2c1cc1n(c2=O)Cc2cc3c(CN(C)C)c(O)ccc3nc2-1`, for which the half-inhibitory concentration (IC50) was greater than 0.1 µM. The viability, T/C (compound 0.000316 µM) was 98.9% and 101% and 105%. Moreover, under “compound 0.001 µM”, the viability, T/C is 93.9% and 102% and 98.8%. In addition, the viability, T/C (compound 0.00316 µM) is 77% and 92.2% and 116%. Also, the viability, T/C (compound 0.01 µM) is 119% and 104% and 94.3%. Besides, the viability, T/C (compound 0.0316 µM) is 98.5% and 97.7% and 86.9%. The viability, T/C (compound 0.1 µM) was 81.5% and 110% and 76.7%.

In the case of `CCc1c2c(nc3ccc(O)cc13)-c1cc3c(c(=O)n1C2)COC(=O)[C@]3(O)CC`, the viability, T/C runs as follows: (compound 0.00316 µM) 106% and 102% and 122%; (compound 0.01 µM) 69.4% and 103% and 64.5%; (compound 0.0316 µM) 63.4% and 83.3% and 72.2%; (compound 0.1 µM) 44.6% and 68.1% and 50.9%; (compound 0.316 µM) 31.1% and 69.5% and 42%; (compound 1 µM) 20% and 66.9% and 19.1%.

In the case of `CNCc1ccc(-c2[nH]c3cc(F)cc4c3c2CCNC4=O)cc1`, the IC50 was greater than 10 µM. In addition, the viability, T/C (compound 0.0316 µM) was 94% and 107% and 86.8%. Also, under “compound 0.1 µM”, the viability, T/C was 89.3% and 94.2% and 86.3%. For the setting “compound 0.316 µM”, the viability, T/C is 113% and 102% and 114%. The viability, T/C (compound 1 µM) is 117% and 101% and 95.7%. The viability, T/C (compound 3.16 µM) was 128% and 105% and 116%. In addition, the viability, T/C (compound 10 µM) was 125% and 115% and 151%.

The values are drawn from PubChem BioAssay AID1963852 (Molecular Pharmacology Branch, DTP, NCI, 2024).
